In the NIST ThermoML archive (doi:10.1021/acs.jced.7b00503):

Conditions: Pendant drop shape

O [water]
Conditions | surface tension liquid-gas [mN/m]
293.15 K | 72.75
298.15 K | 71.97
303.15 K | 71.15
313.15 K | 69.55
323.15 K | 67.9
333.15 K | 66.17
343.15 K | 64.39
353.15 K | 62.61
